Experimental data: article PMC12024234, “Antioxidant, Anti-Inflammatory, and Oral Bioavailability of Novel Sulfonamide Derivatives of Gallic Acid” (Antioxidants, 2025)
“Also recorded” adds a separate entry of the source.

Assays:
[1] = DPPH radical scavenging assay
Procedure: The antioxidant properties of the compounds under study were examined using the 2,2-Diphenyl-1-picrylhydrazyl (DPPH) assay, following a well-established protocol. A DPPH solution was prepared at a concentration of 0.1 mM in methanol. […] To ensure proper reaction, the mixtures were kept in the dark and incubated at room temperature for 30 min. After incubation, the absorbance of each sample was measured at 517 nm using a UV-VIS spectrophotometer. Gallic acid was used as the reference standard, and methanol served as the blank control.
The ability of the compounds to scavenge free radicals was determined by observing the reduction of DPPH at 517 nm, with lower absorbance values indicating higher antioxidant activity. The half-maximal inhibitory concentration (IC50), defined as the concentration of the compound needed to neutralize 50% of the DPPH radicals, was calculated from the dose–response curve. All experiments were performed in triplicate, and the results are reported as the mean of three independent trials. This method is widely recognized for its reliability and reproducibility in evaluating the antioxidant potential of chemical compounds.

[2] = tested on: HIEC-6 cells; assay: Cell viability CCK-8 assay in HIEC-6; assay type: cell-based, Human; settings: 24 h incubation
Procedure: Human intestinal epithelial cells (HIEC-6), originally obtained from the American Type Culture Collection (ATCC), were cultured in Opti-MEM™ I Reduced Serum Medium (Cat. No. 31985) supplemented with 20 mM HEPES, 10 mM L-glutamine, 10 ng/mL epidermal growth factor, and 4% fetal bovine serum (FBS) (New York, NY, USA). Cells were maintained in a humidified 5% CO2 incubator at 37 °C. Cell viability was assessed using the CCK-8 assay, a colorimetric method based on the reduction of water-soluble tetrazolium salts (WST-8) to a water-soluble formazan dye, with the resulting color intensity proportional to the number of viable cells. Briefly, cells were harvested at approximately 80% confluence, detached using trypsin-EDTA, and centrifuged at 1000 rpm for 5 min. The cell pellet was resuspended in fresh medium, and the density was adjusted to 1 × 10^6 cells/mL. A volume of 100 µL (1 × 10^5 cells/well) was seeded into a 96-well plate, with one well containing the medium only as background control. […] Subsequently, 10 µL of CCK-8 reagent was added to each well, and the plate was incubated for 4 h. Absorbance was measured at 450 nm using a microplate reader, results are expressed as the mean ± standard deviation (SD).

[3] = molecular target: T1, COX-2 (Homo sapiens, UniProt P35354); assay: Cyclooxygenase (COX-2) activity assay in HIEC-6 cell lysate; assay type: biochemical
T1 construct: endogenous in cells; host or cells: HIEC-6 cell lysate
T1 sequence (P35354 18-604): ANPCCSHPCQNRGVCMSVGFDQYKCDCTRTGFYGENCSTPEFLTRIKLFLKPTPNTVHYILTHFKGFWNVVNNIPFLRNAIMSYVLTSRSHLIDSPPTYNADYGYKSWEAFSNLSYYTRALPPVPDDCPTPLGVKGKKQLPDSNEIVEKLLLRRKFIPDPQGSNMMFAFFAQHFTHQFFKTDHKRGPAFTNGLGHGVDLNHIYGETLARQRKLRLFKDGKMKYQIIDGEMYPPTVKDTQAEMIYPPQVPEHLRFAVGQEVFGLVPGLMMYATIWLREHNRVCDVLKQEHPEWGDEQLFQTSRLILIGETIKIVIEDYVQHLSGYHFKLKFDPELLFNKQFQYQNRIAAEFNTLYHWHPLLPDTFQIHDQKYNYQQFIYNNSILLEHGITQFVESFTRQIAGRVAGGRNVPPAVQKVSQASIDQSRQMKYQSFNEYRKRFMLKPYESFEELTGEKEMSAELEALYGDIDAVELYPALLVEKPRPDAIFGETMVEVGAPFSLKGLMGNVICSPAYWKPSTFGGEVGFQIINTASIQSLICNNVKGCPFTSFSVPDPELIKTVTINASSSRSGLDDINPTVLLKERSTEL
Procedure: Cyclooxygenase (COX-2) activity assay was performed in HIEC-6 cells according to the manufacturer’s instructions (ab204699). Resorufin standards (0–20 pmol/well) were used to generate a calibration curve for quantifying sample concentrations. HIEC-6 cells were centrifuged at 500× g for 3 min and washed with PBS. The cell pellet was lysed in an ice-cold lysis buffer containing 10% Triton X-100 and a protease inhibitor cocktail in PBS for 5 min. The lysate was then centrifuged at 12,000× g for 3 min at 4 °C, and the supernatant was collected and kept on ice. Protein concentration in the supernatant was determined using a Bradford assay, with a bovine serum albumin standard curve (0–2000 µg/mL). […] This mixture was added to a 96-well plate, and the reaction was initiated by adding arachidonic acid (COX-2 substrate) dissolved in NaOH solution. The enzymatic reaction produced fluorescent resorufin dye, which was measured at excitation/emission wavelengths of λEx/Em = 535/587 nm.

[4] = Oral bioavailability / pharmacokinetics in rats; assay type: in vivo, Sprague Dawley rats; settings: rat serum; for Tmax: rat, serum, po
Procedure: Male Sprague Dawley rats, aged 7–9 weeks and weighing 220 ± 20 g on average, were used for bioavailability studies. The animals were housed in the Laboratory Animal Research Unit at the University of Petra Pharmaceutical Center under controlled conditions: a temperature of 23 ± 2 °C, humidity of 55–65%, and a 12 h light/dark cycle. Prior to the experiments, the rats underwent a 10-day acclimatization period with free access to standard food and water. All procedures complied with the University of Petra’s animal use guidelines, which adhere to the standards of the Federation of European Laboratory Animal Sciences Association (FELASA). The rats were divided into three groups (n = 6 per group) and administered suspensions of GA, 3,4,5-TMBS, or 3,4,5-THBS prepared in 5% carboxymethylcellulose. Each compound was administered orally at a dose of 100 mg/kg, based on previous studies. Blood samples were collected from the retro-orbital plexus at 0.5, 1, 2, 3, 4, 6, 10, and 24 h post-administration. The samples were centrifuged at 5000 rpm for 10 min, and the serum was mixed with acetonitrile in a 1:3 ratio. After a second centrifugation at 5000 rpm for 15 min, the supernatant was collected for high-performance liquid chromatography (HPLC) analysis. HPLC analysis was conducted using a Shimadzu Class VP series system equipped with an LC-10AT VP pump, an SIL-10AD VP autosampler, and an SCL-10AVP system (Shimadzu, Kyoto, Japan). A C18 column (25 cm × 4.6 mm, 5 μm) was used, with a photodiode array detector set to a wavelength range of 200–400 nm. The mobile phase for TMBS and THBS consisted of a 50:50 (v/v) mixture of deionized water and acetonitrile containing 0.1% trifluoroacetic acid, flowing at 1 mL/min. For GA, the mobile phase was a 70:30 mixture of methanol and a water/sulfuric acid solution (100:2), also at a flow rate of 1 mL/min. The retention times for THBS and TMBS were 2.39 and 3.47 min, respectively, while GA eluted at 2.4 min, all detected at 254 nm. Results were analyzed using Lab Solution Software LC (version 5.3) and represent the average of three measurements.

[5] = molecular target: T2, CYP2D6 (Homo sapiens, UniProt P10635); assay: Metabolism by cytochrome P450 2D6 (CypExpress), HPLC; assay type: in vitro ADME; settings: 4 h
T2 construct: purchased Sigma Aldrich C4982
Procedure: The enzymatic activity of cytochrome P450 2D6 (CYP2D6) was evaluated following the CypExpress protocol (C4982, Sigma Aldrich, Darmstadt, Germany). The reaction buffer consisted of 5 mM glucose-6-phosphate (G6P), 2 mM nicotinamide adenine dinucleotide phosphate (NADP+), and 3,4,5-TMBS prepared in PBS at concentrations of 1000 and 1500 µM. Diltiazem was used as a positive control. The reaction was initiated by adding CYP2D6, and the mixture was vortexed for 5 min. The samples were then incubated at 37 °C with gentle shaking at 100 rpm for 4 h. The reaction was terminated by adding acetonitrile, followed by centrifugation at 800 rpm for 10 min. The supernatant was collected and analyzed using HPLC.

[6] = molecular target: T2, CYP2D6; assay: as above; assay type: in vitro ADME
[7] = male, Sprague Dawley, 100 mg/kg, n = 6

T2 sequence (P10635 whole entry): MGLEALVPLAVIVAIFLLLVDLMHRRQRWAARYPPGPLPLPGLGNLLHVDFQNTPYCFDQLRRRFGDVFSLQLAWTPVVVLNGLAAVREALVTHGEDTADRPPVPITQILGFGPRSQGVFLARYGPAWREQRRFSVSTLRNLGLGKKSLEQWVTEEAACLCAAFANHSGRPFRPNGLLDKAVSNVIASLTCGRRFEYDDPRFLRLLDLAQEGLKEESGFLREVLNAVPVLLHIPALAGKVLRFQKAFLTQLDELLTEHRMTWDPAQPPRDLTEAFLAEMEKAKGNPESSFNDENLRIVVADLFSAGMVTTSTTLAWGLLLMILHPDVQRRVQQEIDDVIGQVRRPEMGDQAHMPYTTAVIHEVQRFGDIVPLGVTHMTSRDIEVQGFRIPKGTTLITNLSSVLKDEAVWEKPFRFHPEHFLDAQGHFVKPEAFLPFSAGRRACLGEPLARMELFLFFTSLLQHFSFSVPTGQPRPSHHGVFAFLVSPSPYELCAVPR

O=C(O)c1cc(O)c(O)c(O)c1 [GA, 3,4,5-trihydroxybenzoic acid, reference compound]
EC50 [1]: ~30 µM | DPPH radical scavenging activity ([1]; at 1000 µM): exceeding 90% | ROS scavenging activity ([1]; at 1000 µM (abstract)): 96% | IC50 [2]: 47.6 ± 2.39 µM | IC50 ([2]; Homo sapiens, HIEC-6, 24 h): ~47 µM | COX-2 inhibition compared to ibuprofen ([3]; 1 µM): weaker COX-2 inhibition than ibuprofen | COX-2 inhibition compared to ibuprofen ([3]; 50 µM): low COX-2 inhibition effect; also recorded: weaker COX-2 inhibition than ibuprofen | Cmax ([4]; male, Sprague Dawley, 100 mg/kg (table: 100 mg dose), n = 6): 2140 ± 880 ng/mL | AUC(0-inf) [4, 7]: 13000 ± 5620 ng·h/mL | AUC(0-t) [4, 7]: 9320 ± 4610 ng·h/mL | CL/F [4, 7]: 148 mL/min/kg | half-life [4, 7]: 3.6 ± 0.94 h | MRT inf ([4]; male, Sprague Dawley, 100 mg/kg, n = 6, read-out: MRT0–∞): 7.66 ± 2.99 h | Tmax ([4]; male, Sprague Dawley, 100 mg/kg): 1.3 h | Tmax [4, 7]: 1.3 ± 0.22 h | Vz ([4]; 100 mg/kg, n = 6): 55.46 ± 23.99 (mg)/(μg/mL)

COc1ccc([C@@H]2Sc3ccccc3N(CCN(C)C)C(=O)[C@@H]2OC(C)=O)cc1 [Diltiazem, reference compound]
Metabolism by CYP2D6 (concentration) ([5]; 1000 µM): 849.91 ± 0.62 µM | Metabolism by CYP2D6 (concentration) ([5]; 1500 µM): 1235 ± 6.02 µM | Metabolism by CYP2D6 (concentration) ([6]; 1000 µM, 1 h): 828 ± 21.7 µM | Metabolism by CYP2D6 (concentration) ([6]; 1000 µM, 3 h): 829 ± 78.1 µM | Metabolism by CYP2D6 (concentration) ([6]; 1500 µM, 1 h): 1287 ± 12.8 µM | Metabolism by CYP2D6 (concentration) ([6]; 1500 µM, 3 h): 1460 ± 133 µM
